Source: the NIST ThermoML archive (doi:10.1016/j.fluid.2015.03.009)
“And” between values parts separate entries of the source, which are not always exact repeats. Equal values may be shown once. Numbers after ± are expanded uncertainties.

Settings: Liquid, Closed cell (Static) method

SMILES | vapor or sublimation pressure (348.15 K) | vapor or sublimation pressure (373.15 K)
CCCCCC [hexane] | 123.12 ± 0.38 kPa and 123.03 ± 0.38 kPa and 122.84 ± 0.38 kPa | 247.22 ± 0.55 kPa and 245.99 ± 0.55 kPa and 245.79 ± 0.55 kPa
CCO [ethanol] | 88.59 ± 0.36 kPa and 88.58 ± 0.36 kPa | 224.37 ± 0.48 kPa and 224.31 ± 0.48 kPa
CO [methanol] | 150.71 ± 0.54 kPa and 150.69 ± 0.54 kPa and 150.67 ± 0.54 kPa | 352.64 ± 0.74 kPa and 352.62 ± 0.74 kPa and 352.7 ± 0.74 kPa
